Results taken from patent US12503438B2, “Compounds for the treatment of kinase-dependent disorders” (Exelixis, Inc., priority 2019, dated 2025).

Assays:
KDR = KDR (Homo sapiens, UniProt P35968); test: KDR autophosphorylation ELISA in HUVEC cells; type: cell-based; design: endogenous in cells; host or cells: HUVEC (Lonza #C2519A); settings: cellular activity, VEGF165-stimulated, phospho-KDR ELISA
Method in brief: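 Inhibition of VEGF165-induced KDR phosphorylation was determined in serum-starved HUVEC after 1 h compound pretreatment and 5 min stimulation with 100 ng/mL VEGF165. Lysate phospho-KDR was measured by ELISA; IC50 values came from a 4-parameter logistic fit of 8-point curves.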

Mer = molecular target: T1, Mer (Homo sapiens, UniProt Q12866); test: Mer autophosphorylation ELISA in transient transfected 293A cells; type: cell-based; settings: cellular activity; MERTK-transfected 293A cells, phospho-Mer ELISA
T1 construct: host or cells: 293A cells (Thermo Fisher #R70507)
T1 sequence (Q12866 21-999): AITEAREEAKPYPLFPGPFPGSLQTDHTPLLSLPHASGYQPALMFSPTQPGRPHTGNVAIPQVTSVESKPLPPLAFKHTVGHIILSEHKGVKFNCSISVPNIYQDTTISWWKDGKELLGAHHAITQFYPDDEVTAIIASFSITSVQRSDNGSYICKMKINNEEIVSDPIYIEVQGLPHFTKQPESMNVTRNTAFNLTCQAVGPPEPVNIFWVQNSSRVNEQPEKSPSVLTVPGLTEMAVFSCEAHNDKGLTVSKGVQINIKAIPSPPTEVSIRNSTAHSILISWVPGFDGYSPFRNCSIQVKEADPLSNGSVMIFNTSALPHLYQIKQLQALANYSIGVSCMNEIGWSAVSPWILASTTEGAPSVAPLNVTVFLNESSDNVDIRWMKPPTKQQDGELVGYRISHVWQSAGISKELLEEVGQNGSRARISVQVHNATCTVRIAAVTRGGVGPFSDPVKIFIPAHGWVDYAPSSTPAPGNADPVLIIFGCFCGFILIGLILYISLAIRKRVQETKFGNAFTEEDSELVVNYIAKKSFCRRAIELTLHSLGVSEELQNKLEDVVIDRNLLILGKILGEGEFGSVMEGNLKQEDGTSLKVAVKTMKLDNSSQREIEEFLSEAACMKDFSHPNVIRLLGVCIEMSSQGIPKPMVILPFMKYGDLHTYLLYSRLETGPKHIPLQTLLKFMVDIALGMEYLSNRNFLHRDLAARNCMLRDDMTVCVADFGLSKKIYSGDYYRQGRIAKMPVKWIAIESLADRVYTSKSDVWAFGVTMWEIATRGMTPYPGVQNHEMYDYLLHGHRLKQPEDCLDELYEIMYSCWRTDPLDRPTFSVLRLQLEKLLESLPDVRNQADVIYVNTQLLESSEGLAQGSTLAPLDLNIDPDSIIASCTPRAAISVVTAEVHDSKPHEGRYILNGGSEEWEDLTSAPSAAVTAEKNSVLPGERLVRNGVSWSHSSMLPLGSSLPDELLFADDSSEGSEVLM
Method in brief: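 293A cells transiently transfected with human MERTK DNA, then treated 1 h with 8-point compound dilutions in serum-free medium (0.3% DMSO). Phospho-Mer in lysates quantified by sandwich ELISA against phospho-Mer standard; normalised to DMSO (100%) and reference inhibitor (0%), IC50 from 4-parameter logistic fit.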

Chain of KDR (P35968 20-1356): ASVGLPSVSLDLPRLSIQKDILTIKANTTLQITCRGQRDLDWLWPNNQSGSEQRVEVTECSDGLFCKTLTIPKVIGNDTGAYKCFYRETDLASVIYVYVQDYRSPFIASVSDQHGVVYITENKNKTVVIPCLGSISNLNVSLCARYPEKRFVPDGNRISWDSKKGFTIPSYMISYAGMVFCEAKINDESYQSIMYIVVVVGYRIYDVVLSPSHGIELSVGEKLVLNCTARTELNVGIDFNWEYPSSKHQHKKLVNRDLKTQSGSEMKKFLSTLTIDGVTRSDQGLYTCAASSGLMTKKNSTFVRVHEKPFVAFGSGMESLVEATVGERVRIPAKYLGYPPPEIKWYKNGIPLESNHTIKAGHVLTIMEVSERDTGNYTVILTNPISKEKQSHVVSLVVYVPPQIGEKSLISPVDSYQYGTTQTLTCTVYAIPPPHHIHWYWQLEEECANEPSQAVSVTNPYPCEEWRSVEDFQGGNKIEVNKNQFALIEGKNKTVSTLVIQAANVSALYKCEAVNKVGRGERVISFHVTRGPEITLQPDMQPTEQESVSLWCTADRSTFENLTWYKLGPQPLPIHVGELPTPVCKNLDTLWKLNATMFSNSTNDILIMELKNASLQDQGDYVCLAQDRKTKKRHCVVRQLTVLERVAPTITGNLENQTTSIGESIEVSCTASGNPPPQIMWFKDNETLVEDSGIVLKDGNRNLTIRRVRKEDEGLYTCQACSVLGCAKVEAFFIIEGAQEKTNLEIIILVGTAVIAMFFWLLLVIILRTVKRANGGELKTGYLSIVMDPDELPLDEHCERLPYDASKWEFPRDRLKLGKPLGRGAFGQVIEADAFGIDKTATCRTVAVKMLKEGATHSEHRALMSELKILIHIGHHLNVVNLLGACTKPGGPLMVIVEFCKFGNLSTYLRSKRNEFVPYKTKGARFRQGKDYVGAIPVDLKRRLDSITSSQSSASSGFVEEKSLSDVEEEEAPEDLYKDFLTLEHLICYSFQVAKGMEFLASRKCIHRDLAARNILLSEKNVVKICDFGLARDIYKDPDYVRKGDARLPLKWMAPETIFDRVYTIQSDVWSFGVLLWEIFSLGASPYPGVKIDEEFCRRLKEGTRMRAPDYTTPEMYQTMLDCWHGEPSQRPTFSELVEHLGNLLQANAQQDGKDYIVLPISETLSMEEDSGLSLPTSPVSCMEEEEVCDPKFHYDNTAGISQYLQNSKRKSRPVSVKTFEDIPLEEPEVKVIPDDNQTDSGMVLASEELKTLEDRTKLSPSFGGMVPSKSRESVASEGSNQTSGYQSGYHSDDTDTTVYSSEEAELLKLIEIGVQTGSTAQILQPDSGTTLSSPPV

| SMILES | IC50 (KDR) | IC50 (Mer) |
| --- | --- | --- |
| CC(=O)N1CCC(c2ccc3c(Oc4ccc(NC(=O)C5(C(=O)Nc6ccc(F)cc6)CC5)cc4)ccnc3c2)C1 (stereo not drawn) [Compound 92, 1-N-[4-[7-(1-Acetylpyrrolidin-3-yl)quinolin-4-yl]oxyphenyl]-1-N′-(4-fluorophenyl)cyclopropane-1,1-dicarboxamide] | 100 to 300 nM | 10 to 100 nM |
| CS(=O)(=O)N1CCC(c2ccc3c(Oc4ccc(NC(=O)C5(C(=O)Nc6ccc(F)cc6)CC5)cc4)ccnc3c2)C1 (stereo not drawn) [Compound 93, 1-N′-(4-Fluorophenyl)-1-N-[4-[7-(1-methylsulfonylpyrrolidin-3-yl)quinolin-4-yl]oxyphenyl]cyclopropane-1,1-dicarboxamide] | > 300 nM | 100 to 300 nM |
| Cc1cc2c(Oc3ccc(NC(=O)C4(C(=O)Nc5ccc(F)cc5)CC4)cc3)ccnc2cc1-c1cc[nH]n1 [Compound 107, 1-N′-(4-Fluorophenyl)-1-N-[4-[6-methyl-7-(1H-pyrazol-3-yl)quinolin-4-yl]oxyphenyl]cyclopropane-1,1-dicarboxamide] | 10 to 100 nM | 10 to 100 nM |
| O=C(Nc1ccc(F)cc1)C1(C(=O)Nc2ccc(Oc3ccnc4cc(-c5ccccc5)ccc34)cc2)CC1 [Compound 55, 1-N′-(4-Fluorophenyl)-1-N-[4-(7-phenylquinolin-4-yl)oxyphenyl]cyclopropane-1,1-dicarboxamide] | 10 to 100 nM | 100 to 300 nM |
| Nc1cc(-c2ccc3c(Oc4ccc(NC(=O)C5(C(=O)Nc6ccc(F)cc6)CC5)cc4)ccnc3c2)ccn1 [Compound 97, 1-N-[4-[7-(2-Aminopyridin-4-yl)quinolin-4-yl]oxyphenyl]-1-N′-(4-fluorophenyl)cyclopropane-1,1-dicarboxamide] | 10 to 100 nM | ≤ 10 nM |
| O=C(Nc1ccc(F)cc1)C1(C(=O)Nc2ccc(Oc3ccnc4cc(-c5ccn(C6CC6)n5)ccc34)cc2)CC1 [Compound 98, 1-N-[4-[7-(1-Cyclopropylpyrazol-3-yl)quinolin-4-yl]oxyphenyl]-1-N′-(4-fluorophenyl)cyclopropane-1,1-dicarboxamide] | 10 to 100 nM | 100 to 300 nM |
| O=C(Nc1ccc(F)cc1)C1(C(=O)Nc2ccc(Oc3ccnc4cc(C5=CCOC5)ccc34)cc2)CC1 [Compound 95, 1-N-[4-[7-(2,5-Dihydrofuran-3-yl)quinolin-4-yl]oxyphenyl]-1-N′-(4-fluorophenyl)cyclopropane-1,1-dicarboxamide] | ≤ 10 nM | 10 to 100 nM |
| Cc1cc2c(Oc3cc(F)c(NC(=O)C4(C(=O)Nc5ccc(F)cc5)CC4)cc3F)ccnc2cc1-c1cnn(C)c1 [Compound 105, 1-N′-[2,5-Difluoro-4-[6-methyl-7-(1-methylpyrazol-4-yl)quinolin-4-yl]oxyphenyl]-1-N-(4-fluorophenyl)cyclopropane-1,1-dicarboxamide] | 10 to 100 nM | 10 to 100 nM |
| O=C(Nc1ccc(F)cc1)C1(C(=O)Nc2ccc(Oc3ccnc4cc(-c5cc6ccccn6n5)ccc34)cc2)CC1 [Compound 104, 1-N′-(4-Fluorophenyl)-1-N-[4-(7-pyrazolo[1,5-a]pyridin-2-ylquinolin-4-yl)oxyphenyl]cyclopropane-1,1-dicarboxamide] | 10 to 100 nM | 100 to 300 nM |
| Cc1cc2c(Oc3ccc(NC(=O)C4(C(=O)Nc5ccc(F)cc5)CC4)cc3)ccnc2cc1-c1ccn(C)n1 [Compound 108, 1-N′-(4-Fluorophenyl)-1-N-[4-[6-methyl-7-(1-methylpyrazol-3-yl)quinolin-4-yl]oxyphenyl]cyclopropane-1,1-dicarboxamide] | 10 to 100 nM | 100 to 300 nM |
| Nc1n[nH]cc1-c1ccc2c(Oc3ccc(NC(=O)C4(C(=O)Nc5ccc(F)cc5)CC4)cc3)ccnc2c1 [Compound 90, 1-N-[4-[7-(3-Amino-1H-pyrazol-4-yl)quinolin-4-yl]oxyphenyl]-1-N′-(4-fluorophenyl)cyclopropane-1,1-dicarboxamide] | 10 to 100 nM | 10 to 100 nM |

Now from value to molecule:

| IC50 (KDR) | IC50 (Mer) | SMILES |
| --- | --- | --- |
| 10 to 100 nM | 10 to 100 nM | Cc1cc(-c2ccc3c(Oc4ccc(NC(=O)C5(C(=O)Nc6ccc(F)cc6)CC5)cc4)ccnc3c2)nn1C [Compound 101, 1-N-[4-[7-(1,5-Dimethylpyrazol-3-yl)quinolin-4-yl]oxyphenyl]-1-N′-(4-fluorophenyl)cyclopropane-1,1-dicarboxamide] |
| 100 to 300 nM | 100 to 300 nM | Cc1ccn(-c2ccc3c(Oc4ccc(NC(=O)C5(C(=O)Nc6ccc(F)cc6)CC5)cc4)ccnc3c2)n1 [Compound 91, 1-N′-(4-Fluorophenyl)-1-N-[4-[7-(3-methylpyrazol-1-yl)quinolin-4-yl]oxyphenyl]cyclopropane-1,1-dicarboxamide] |
| 10 to 100 nM | 10 to 100 nM | Cc1cnn(-c2ccc3c(Oc4ccc(NC(=O)C5(C(=O)Nc6ccc(F)cc6)CC5)cc4)ccnc3c2)c1 [Compound 96, 1-N′-(4-Fluorophenyl)-1-N-[4-[7-(4-methylpyrazol-1-yl)quinolin-4-yl]oxyphenyl]cyclopropane-1,1-dicarboxamide] |
| ≤ 10 nM | 10 to 100 nM | O=C(Nc1ccc(F)cc1)C1(C(=O)Nc2ccc(Oc3ccnc4cc(-c5cnn(CF)c5)ccc34)cc2)CC1 [Compound 94, 1-N-[4-[7-[1-(Fluoromethyl)pyrazol-4-yl]quinolin-4-yl]oxyphenyl]-1-N′-(4-fluorophenyl)cyclopropane-1,1-dicarboxamide] |
| ≤ 10 nM | 10 to 100 nM | O=C(Nc1ccc(F)cc1)C1(C(=O)Nc2ccc(Oc3ccnc4cc(-c5ccn(CF)n5)ccc34)cc2)CC1 [Compound 102, 1-N-[4-[7-[1-(Fluoromethyl)pyrazol-3-yl]quinolin-4-yl]oxyphenyl]-1-N′-(4-fluorophenyl)cyclopropane-1,1-dicarboxamide] |
| ≤ 10 nM | 10 to 100 nM | Cc1cc(-c2ccc3c(Oc4ccc(NC(=O)C5(C(=O)Nc6ccc(F)cc6)CC5)cc4)ccnc3c2)n[nH]1 [Compound 99, 1-N′-(4-Fluorophenyl)-1-N-[4-[7-(5-methyl-1H-pyrazol-3-yl)quinolin-4-yl]oxyphenyl]cyclopropane-1,1-dicarboxamide] |
| ≤ 10 nM | 10 to 100 nM | Cc1cn(-c2ccc3c(Oc4ccc(NC(=O)C5(C(=O)Nc6ccc(F)cc6)CC5)cc4)ccnc3c2)cn1 [Compound 87, 1-N′-(4-Fluorophenyl)-1-N-[4-[7-(4-methylimidazol-1-yl)quinolin-4-yl]oxyphenyl]cyclopropane-1,1-dicarboxamide] |
